PubChem BioAssay (NCI)
Several values for one entry are separate records, joined by “and”; a condition that tells them apart may be missing. Identical values can stand only once.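 Each compound was tested at five concentrations against cells in 96-well plates for 48 hours. At the GI50, growth is halved. The concentration for full growth arrest is given as TGI.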

What was measured:
Experiment in all cases: growth of human tumour cells (NCI), 48 h
KM12 colon = system: KM12 colon
NCI-H226 lung = system: NCI-H226 lung
SK-OV-3 ovarian = system: SK-OV-3 ovarian
HOP-62 NSCLC = system: HOP-62 NSCLC
SF-539 CNS = system: SF-539 CNS
SR leukemia = system: SR leukemia
NCI-H23 lung = system: NCI-H23 lung
PC-3 prostate = system: PC-3 prostate
SK-MEL-5 melanoma = system: SK-MEL-5 melanoma
DU-145 prostate = system: DU-145 prostate

Row | SMILES | TGI (KM12 colon) | TGI (NCI-H226 lung) | TGI (SK-OV-3 ovarian) | TGI (HOP-62 NSCLC) | TGI (SF-539 CNS) | TGI (SR leukemia) | TGI (NCI-H23 lung) | GI50 (PC-3 prostate) | TGI (PC-3 prostate) | TGI (SK-MEL-5 melanoma) | TGI (DU-145 prostate) | GI50 (KM12 colon) | GI50 (NCI-H226 lung) | GI50 (SF-539 CNS) | GI50 (SR leukemia) | GI50 (NCI-H23 lung) | GI50 (SK-MEL-5 melanoma) | GI50 (SK-OV-3 ovarian) | GI50 (HOP-62 NSCLC) | GI50 (DU-145 prostate)
1 | O=c1[nH]c2ccccc2cc1C(Cl)=C(Cl)Cl | > 100 µM | > 100 µM | > 100 µM | > 100 µM | > 100 µM | > 100 µM | > 100 µM | – | – | – | – | – | – | – | – | – | – | – | – | –
2 | CCc1c2c(nc3cc4c(cc13)OCO4)-c1cc3c(c(=O)n1C2)COC(=O)[C@]3(O)CC | > 100 µM | 0.227 µM | – | > 100 µM | 0.0505 µM | – | 1.08 µM | 277 nM and 122 nM | > 100 µM | 0.0648 µM and 0.143 µM | > 100 µM | 184 nM and 191 nM | < 0.001 µM | < 0.001 µM | < 1 nM | 2.63 nM | – | – | – | –
3 | N#CC1(c2nc3ccccc3o2)C(=O)C(=O)N(C2C3CC4CC(C3)CC2C4)C(=O)C1=O (configuration not stated) | > 100 µM | > 100 µM | > 100 µM | > 100 µM | > 100 µM | > 100 µM | > 100 µM | – | – | > 100 µM | – | – | – | – | – | – | – | – | – | –
4 | C#CCNC(=O)NC(CCCNC(=O)OCc1ccccc1)C(=O)OCc1ccccc1 (configuration not stated) | > 100 µM | > 100 µM | > 100 µM | > 100 µM | > 100 µM | > 100 µM | > 100 µM | – | – | > 100 µM | – | – | – | – | – | – | – | – | – | –
5 | COc1ccc2cc1Oc1ccc(cc1)C[C@H]1c3cc(c(OC)cc3CCN1C)Oc1c(OC)c(OC)cc3c1[C@H](C2)N(C)CC3 | – | – | 15.3 µM and 34 µM and > 100 µM | 15.1 µM and 34.2 µM | – | – | 20.5 µM and 27.4 µM and > 100 µM | – | – | 11.8 µM and 13.8 µM and > 100 µM | – | – | – | 2.03 µM | 28.2 nM | – | 3.94 µM | 17.6 µM | 15.1 µM | –
6 | Cc1ccccc1C(C#N)C(=O)C(=O)Nc1nc([N+](=O)[O-])cs1 (configuration not stated) | > 100 µM | > 100 µM | > 100 µM | > 100 µM | > 100 µM | – | > 100 µM | – | – | > 100 µM | – | – | – | – | – | – | – | – | – | –
7 | CCOc1ccc(NC(=O)CC2Sc3ccccc3NC2=O)cc1 (configuration not stated) | 95.2 µM | > 100 µM | > 100 µM | > 100 µM | > 100 µM | – | > 100 µM | – | – | > 100 µM | – | – | – | – | – | – | – | – | – | –
8 | COc1cc2c3c(cccc3c1)C(=O)N(CCN1CCCC1)C2=O | > 100 µM | – | 14.5 µM | 5.27 µM | 5.14 µM | > 100 µM | 8.21 µM | 2910 nM | 11.9 µM | 3.06 µM | 5.97 µM | 2880 nM | – | 1.98 µM | 1470 nM | 2490 nM | 1.56 µM | 3.27 µM | 2.1 µM | 2.13 µM
9 | O=[N+]([O-])[C@@H]1C2C=CC(C2)[C@H]1Cl (some centres not stated) | > 100 µM | – | > 100 µM | > 100 µM | > 100 µM | > 100 µM | > 100 µM | – | – | > 100 µM | – | – | – | – | – | – | – | – | – | –
10 | C[C@@H]1CC[C@H]2C(COCC3=C(C(F)(F)F)O[C@@H]4O[C@@]5(C)CC[C@H]6[C@H](C)CC[C@@H]3[C@@]46OO5)=C(C(F)(F)F)O[C@@H]3O[C@@]4(C)CC[C@@H]1[C@]32OO4 | > 100 µM | > 100 µM | > 100 µM | – | > 100 µM | > 100 µM | > 100 µM | < 10 nM | > 100 µM | > 100 µM | – | < 10 nM | 0.047 µM | < 0.01 µM | < 10 nM | < 10 nM | 0.0109 µM | > 100 µM | – | –
11 | O=C(C#Cc1c[nH]c(=O)[nH]c1=O)c1ccccc1Cl | 88.4 µM | 75.7 µM | > 100 µM | > 100 µM | 30 µM | – | 32.3 µM | – | – | 28.8 µM | – | – | – | – | – | – | – | – | – | –
12 | CN(C)/C(=N/C(=S)Nc1ccccc1)SCc1ccccc1 | > 100 µM | > 100 µM | > 100 µM | > 100 µM | > 100 µM | – | > 100 µM | – | – | > 100 µM | – | – | – | – | – | – | – | – | – | –
13 | N#Cc1c(-c2cccs2)c2c(=S)[nH]c(=S)[nH]c2[nH]c1=S | > 100 µM | > 100 µM | > 100 µM | > 100 µM | 48.1 µM | > 100 µM | – | 30800 nM | > 100 µM | 33.9 µM | 78.7 µM | 28600 nM | 37.2 µM | 22 µM | 29300 nM | – | 17.2 µM | 46 µM | > 100 µM | 24 µM
14 | COc1cc2c(c3c1C=CCO3)C(=O)c1ccccc1C2=O | > 100 µM | 97.8 µM | > 100 µM | > 100 µM | > 100 µM | > 100 µM | > 100 µM | – | – | 78.6 µM | – | – | – | – | – | – | – | – | – | –
15 | CCOC(=O)CC1=Nc2ccccc2SC1 | > 100 µM | > 100 µM | – | > 100 µM | > 100 µM | – | > 100 µM | – | – | > 100 µM | – | – | – | – | – | – | – | – | – | –
16 | Cc1cc([C@@H](C)Nc2ccccc2C(=O)O)c2nc(N3CCOCC3)cc(=O)n2c1 | > 10 µM | > 10 µM | > 10 µM | > 10 µM | > 10 µM | – | > 10 µM | 3730 nM | > 10 µM | > 10 µM | > 10 µM | > 10000 nM | > 10 µM | 7.11 µM | – | > 10000 nM | > 10 µM | 1.08 µM | > 10 µM | > 10 µM
17 | CCCCCCCCCCCCC(=O)OC(c1cnco1)c1nc(C(O)CC(O)C(O)C(C)O)co1 (configuration not stated) | 21.9 µM | – | > 100 µM | > 100 µM | > 100 µM | 2.5 µM | 25 µM | – | – | 9.66 µM and 6.95 µM | – | 359 nM | 0.28 µM | 3.73 µM | 337 nM | 1230 nM | 1.45 µM | 4.64 µM | – | –
18 | FC(F)(F)c1nc(-c2ccccc2Cl)[nH]c1C(F)(F)F | 4.13 µM | 3.54 µM | 2.45 µM | 1.35 µM | 4.48 µM | 1.68 µM | 2.03 µM | – | – | 0.833 µM | – | – | – | – | – | – | – | – | – | –
19 | COc1ccc(/C=C/C=C(/C#N)C(N)=S)cc1 | 89.4 µM | > 100 µM | > 100 µM | 94.9 µM | > 100 µM | > 100 µM | > 100 µM | – | – | 36.4 µM | > 100 µM | 21300 nM | 55.7 µM | 34.8 µM | 19400 nM | 28700 nM | 18.3 µM | 96.1 µM | 29.8 µM | 32.7 µM
20 | Cc1cc2c(cc1C)[n+](=O)c(C(=O)C/C(=N/NC(=O)c1ccccc1O)C(=O)Nc1ccccc1C(C)C)c(C)n2[O-] | > 100 µM | > 100 µM | > 100 µM | > 100 µM | > 100 µM | – | > 100 µM | – | – | > 100 µM | – | – | – | – | – | – | – | – | – | –
